Assay results reported in PMC9763021, “Comprehensive Assessment of Biomolecular Interactions of Morpholine-Based Mixed Ligand Cu(II) and Zn(II) Complexes of 2,2′-Bipyridine as Potential Anticancer and SARS-CoV-2 Agents: A Synergistic Experimental and Structure-Based Virtual Screening” (Bioinorganic Chemistry and Applications, 2022).

What was measured:
Format in all cases: cell-based
Aspergillus niger = assay: Agar disc diffusion, strain H; parameters: (inhibition %): concentration or dose not given beside the values; conditions: for diameter of the clear zone inhibition: control = 6 mm
Protocol: (§1) In-vitro antimicrobial properties were evaluated for all samples by the agar disc diffusion method towards different fungal and bacterial strains. Additionally, the reported inhibition zone values were comparatively analyzed with the standard antifungal drugs ketoconazole and amphotericin B as well as the standard antibiotic medications streptomycin and amikacin.
(§2) The current research has a curious focus on the in vitro antimicrobial properties of biological systems because these studies are crucial for developing effective antibacterial and antifungal medications. […] It can also be spelled out based on the chelation theory proposed by Overtone and Tweedy. Chelation theory points out that the partial exchanging of the positive charge of the metal center with donor moieties, and overlap of the ligand orbitals will reduce the greater degree of the metal ion's polarity, which ultimately rises the delocalization of π and d electrons over the full chelated ring system. By raising the size of the metal ion due to the retarding of polarization, chelation may also enhance the complexes' lipophilic characteristics, which further stimulate the lipid membrane permeability and break down the bacteria' enzymes responsible for cell wall formation, therefore slowing down the regular cell processes. By preventing the production of cell walls/proteins/DNA, including by obstructing folate metabolism and the cytoplasmic membrane, antimicrobial drugs frequently either fully eliminate microbes or only prevent their cell growth. Additionally, the samples' mode of action may be employed in disrupting the cell's respiration process by forming an H-bond during the morpholine-fused iminic group coordinated with the active metal center of its components, inhibiting proliferation of the cell. […] The difference in the antimicrobial efficacy of some of the compounds towards various microorganisms influences on the impermeability of the cells of the germs or the diversity of ribosomes of the microbes. The % of the inhibition of all substances is estimated from (45) (Table 9).
(§3) (A, B, C, D, and E are represented as gram negative bacteria species Escherichia coli, Salmonella enteric serovar typhi, Salmonella enteric serovar typhi, Pseudomonas aeruginosa, and Shigella flexneri, respectively. F & G are denoted as gram positive bacteria species Staphylococcus aureus and Bacillus cereus. H, I, and J are represented as fungal strains Aspergillus niger, Candida albicans, and Mucor indicus. Standard drugs for bacterial strains: Amikacin & Streptomycin Standard drugs for fungal strains: Ketoconazole and Amphotericin B. [Control (DMSO) = 6 mm].(44) Inhibition %=T–C/T×100, where T and C are represented as the diameter of microbial growth of the sample plates and the control plate (6 mm), respectively. Error limits ±2.5–5.0% (P ≤ 0.05).

Candida albicans = assay: Agar disc diffusion, strain I; parameters: (inhibition %): concentration or dose not given beside the values; conditions: for diameter of the clear zone inhibition: control = 6 mm
Protocol: as §1, §2, §3

Mucor indicus = assay: Agar disc diffusion, strain J; parameters: (inhibition %): concentration or dose not given beside the values; conditions: for diameter of the clear zone inhibition: control = 6 mm
Protocol: as §1, §2, §3

Staphylococcus aureus = assay: Agar disc diffusion, strain F; parameters: (inhibition %): concentration or dose not given beside the values
Protocol: as §1, §2, §3

Bacillus cereus = assay: Agar disc diffusion, strain G; parameters: (inhibition %): concentration or dose not given beside the values
Protocol: as §1, §2, §3

Pseudomonas aeruginosa = assay: Agar disc diffusion, strain D; parameters: (inhibition %): concentration or dose not given beside the values
Protocol: as §1, §2, §3

[1] = test system: Salmonella enteric serovar typhi; assay: Agar disc diffusion, strain B
Protocol: as §1, §2, §3

Escherichia coli = assay: Agar disc diffusion, strain A; parameters: (inhibition %): concentration or dose not given beside the values
Protocol: as §1, §2, §3

Shigella flexneri = assay: Agar disc diffusion, strain E; parameters: (inhibition %): concentration or dose not given beside the values
Protocol: as §1, §2, §3

[2] = test system: Salmonella enteric serovar typhi; assay: Agar disc diffusion, strain C
Protocol: as §1, §2, §3

Structure (SMILES) | (inhibition %) (Aspergillus niger) [%] | diameter of the clear zone inhibition (Aspergillus niger) [mm] | (inhibition %) (Candida albicans) [%] | diameter of the clear zone inhibition (Candida albicans) [mm] | (inhibition %) (Mucor indicus) [%] | diameter of the clear zone inhibition (Mucor indicus) [mm] | (inhibition %) (Staphylococcus aureus) [%] | diameter of the clear zone inhibition (Staphylococcus aureus; control = 6 mm) [mm] | (inhibition %) (Bacillus cereus) [%] | diameter of the clear zone inhibition (Bacillus cereus; control = 6 mm) [mm] | (inhibition %) (Pseudomonas aeruginosa) [%] | diameter of the clear zone inhibition (Pseudomonas aeruginosa; control = 6 mm) [mm] | (inhibition %) [1] [%] | diameter of the clear zone inhibition ([1]; control = 6 mm) [mm] | (inhibition %) (Escherichia coli; (T–C)/T×100) [%] | diameter of the clear zone inhibition (Escherichia coli; control (DMSO) = 6 mm) [mm] | (inhibition %) (Shigella flexneri) [%] | diameter of the clear zone inhibition (Shigella flexneri; control = 6 mm) [mm] | (inhibition %) [2] [%] | diameter of the clear zone inhibition ([2]; control = 6 mm) [mm]
C[C@@H]1[C@H](O)[C@@H](C)/C=C/C=C/C=C/C=C/C=C/C=C/C=C/[C@H](O[C@@H]2O[C@H](C)[C@@H](O)[C@H](N)[C@@H]2O)C[C@@H]2O[C@](O)(C[C@@H](O)C[C@@H](O)[C@H](O)CC[C@@H](O)C[C@@H](O)CC(=O)O[C@H]1C)C[C@H](O)[C@H]2C(=O)O [Amphotericin B, reference compound] | 60 | 15 | 65 | 17 | 65 | 17 |  |  |  |  |  |  |  |  |  |  |  |  |  | 
CC(=O)N1CCN(c2ccc(OCC3COC(Cn4ccnc4)(c4ccc(Cl)cc4Cl)O3)cc2)CC1 (centres unmarked) [Ketoconazole, reference compound] | 63 | 16 | 67 | 18 | 67 | 18 |  |  |  |  |  |  |  |  |  |  |  |  |  | 
NCC[C@H](O)C(=O)N[C@@H]1C[C@H](N)[C@@H](O[C@H]2O[C@H](CN)[C@@H](O)[C@H](O)[C@H]2O)[C@H](O)[C@H]1O[C@H]1O[C@H](CO)[C@@H](O)[C@H](N)[C@H]1O [Amikacin, reference compound] |  |  |  |  |  |  | 70 | 20 | 70 | 20 | 70 | 20 | 73 | 22 | 73 | 22 | 70 | 20 | 75 | 24
